Assay results as given in the CheMixHub viscosity set.

Assay: xn = mol fraction of the nth substance listed

CC1COC(=O)O1 (stereo unspecified) + Cc1ccccc1
viscosity [mPa·s], 101.3 kPa
Settings	293.15 K	298.15 K	303.15 K	308.15 K
x1 = 0.0911	0.6805	0.6333	0.5934	0.5572
x1 = 0.1223	–	–	0.6125	–
x1 = 0.1841	0.7726	0.719	0.6689	0.6294
x1 = 0.2385	–	–	0.7127	–
x1 = 0.2789	0.8738	0.8139	0.7586	0.7171
x1 = 0.3493	–	–	0.824	–
x1 = 0.3757	1.006	0.9358	0.8694	0.8243
x1 = 0.4553	–	–	0.9463	–
x1 = 0.4744	1.149	1.074	0.9983	0.9407
x1 = 0.5561	–	–	1.085	–
x1 = 0.5752	1.292	1.195	1.103	1.03
x1 = 0.6524	–	–	1.244	–
x1 = 0.678	1.529	1.404	1.304	1.203
x1 = 0.7452	–	–	1.431	–
x1 = 0.7831	1.856	1.69	1.549	1.42
x1 = 0.8335	–	–	1.646	–
x1 = 0.8904	2.256	2.048	1.869	1.71
x1 = 0.9188	–	–	1.888	–

c1ccc2ccccc2c1 + Cc1ccccc1
Settings	viscosity [mPa·s]
293.15 K, 101.3 kPa, x1 = 0.00773	0.6067
293.15 K, 101.3 kPa, x1 = 0.01364	0.606
293.15 K, 101.3 kPa, x1 = 0.02032	0.6117
293.15 K, 101.3 kPa, x1 = 0.02587	0.616
293.15 K, 101.3 kPa, x1 = 0.03281	0.6241
293.15 K, 101.3 kPa, x1 = 0.03882	0.6277
293.15 K, 101.3 kPa, x1 = 0.04399	0.6308
298.15 K, 101 kPa, x1 = 0.0419	0.5848
298.15 K, 101 kPa, x1 = 0.1026	0.6394
298.15 K, 101 kPa, x1 = 0.1533	0.6866
298.15 K, 101 kPa, x1 = 0.2127	0.747
298.15 K, 101.3 kPa, x1 = 0.00773	0.5676
298.15 K, 101.3 kPa, x1 = 0.01364	0.5709
298.15 K, 101.3 kPa, x1 = 0.02032	0.5768
298.15 K, 101.3 kPa, x1 = 0.02587	0.581
298.15 K, 101.3 kPa, x1 = 0.03281	0.5863
298.15 K, 101.3 kPa, x1 = 0.03882	0.591
298.15 K, 101.3 kPa, x1 = 0.04399	0.5948
303.15 K, 101 kPa, x1 = 0.3218	0.7855
308.15 K, 101 kPa, x1 = 0.3218	0.747
308.15 K, 101 kPa, x1 = 0.3709	0.8101
313.15 K, 101 kPa, x1 = 0.3218	0.7058
313.15 K, 101 kPa, x1 = 0.3709	0.7571
313.15 K, 101.3 kPa, x1 = 0.00773	0.4785
313.15 K, 101.3 kPa, x1 = 0.01364	0.4809
313.15 K, 101.3 kPa, x1 = 0.02032	0.4846
313.15 K, 101.3 kPa, x1 = 0.02587	0.4888
313.15 K, 101.3 kPa, x1 = 0.03281	0.4919
313.15 K, 101.3 kPa, x1 = 0.03882	0.4951
313.15 K, 101.3 kPa, x1 = 0.04399	0.4995
318.15 K, 101 kPa, x1 = 0.3218	0.661
318.15 K, 101 kPa, x1 = 0.3709	0.7105
323.15 K, 101 kPa, x1 = 0.3218	0.627
323.15 K, 101 kPa, x1 = 0.3709	0.672
323.15 K, 101.3 kPa, x1 = 0.00773	0.4281
323.15 K, 101.3 kPa, x1 = 0.01364	0.4311
323.15 K, 101.3 kPa, x1 = 0.02032	0.4342
323.15 K, 101.3 kPa, x1 = 0.02587	0.4374
323.15 K, 101.3 kPa, x1 = 0.03882	0.4433
323.15 K, 101.3 kPa, x1 = 0.04136	0.4401
323.15 K, 101.3 kPa, x1 = 0.04399	0.4469
